Measured values as given in US9856252B2, “2-(hetero)aryl-benzimidazole and imidazopyridine derivatives as inhibitors of asparagime emethyl transferase” (Cancer Therapeutics CRC Pty Ltd, priority 2013, dated 2018).
pIC50: −log10 of the molar value.

The compounds below were run against Full-length PRMT5 enzyme (NCBI Reference sequence NP_006100.2) co-expressed with His6-MEP50 (Homo sapiens (Human), UniProt O14744) (assay: PRMT5 Biochemical Assay). Conditions: histone H4 derived peptide substrate 200 nM, 1 μM S-Adenosyl methionine, 4 hours at 37° C., Transcreener EPIGEN fluorescence polarisation.
Procedure: Compounds of the invention may be tested for in vitro activity in the following assay: A histone H4 derived peptide is used as substrate (amino acid sequence: […]N H2). Full-length PRMT5 enzyme (NCBI Reference sequence NP_006100.2) was co-expressed with His6-MEP50 in insect cells and purified via Nickel immobilized metal affinity and gel filtration chromatography (“the enzyme”).
The 6 μL assay reactions are run in Greiner brand black 384-well low volume plates. All reactions contained assay buffer (phosphate buffered saline, 0.01% (v/v) Tween-20, 0.01% (w/v) albumin from chicken egg white, 1 mM dithiothreitol, 200 nM peptide substrate, 1 μM S-Adenosyl methionine, and 15 ng/reaction enzyme, with the enzyme being omitted from negative control reactions. Compounds were added in a volume of 100 nL from dilution series prepared in DMSO, positive and negative control reactions receiving the same volume DMSO without compound. The plates were sealed with adhesive seals and incubated for 4 hours at 37° C. Reaction progress was measured using the Transcreener™ EPIGEN methyltransferase assay (BellBrook Labs, Madison, Wis.) as recommended by the manufacturer. To each reaction 2 μL detection mix were added, containing coupling enzymes, fluorescence polarisation tracer, and AMP antibody. Plates were incubated for 90 minutes before being read on a PerkinElmer EnVision™ plate reader in fluorescence polarisation mode.

Sequence of Full-length PRMT5 enzyme (NCBI Reference sequence NP_006100.2) co-expressed with His6-MEP50 (O14744 whole entry): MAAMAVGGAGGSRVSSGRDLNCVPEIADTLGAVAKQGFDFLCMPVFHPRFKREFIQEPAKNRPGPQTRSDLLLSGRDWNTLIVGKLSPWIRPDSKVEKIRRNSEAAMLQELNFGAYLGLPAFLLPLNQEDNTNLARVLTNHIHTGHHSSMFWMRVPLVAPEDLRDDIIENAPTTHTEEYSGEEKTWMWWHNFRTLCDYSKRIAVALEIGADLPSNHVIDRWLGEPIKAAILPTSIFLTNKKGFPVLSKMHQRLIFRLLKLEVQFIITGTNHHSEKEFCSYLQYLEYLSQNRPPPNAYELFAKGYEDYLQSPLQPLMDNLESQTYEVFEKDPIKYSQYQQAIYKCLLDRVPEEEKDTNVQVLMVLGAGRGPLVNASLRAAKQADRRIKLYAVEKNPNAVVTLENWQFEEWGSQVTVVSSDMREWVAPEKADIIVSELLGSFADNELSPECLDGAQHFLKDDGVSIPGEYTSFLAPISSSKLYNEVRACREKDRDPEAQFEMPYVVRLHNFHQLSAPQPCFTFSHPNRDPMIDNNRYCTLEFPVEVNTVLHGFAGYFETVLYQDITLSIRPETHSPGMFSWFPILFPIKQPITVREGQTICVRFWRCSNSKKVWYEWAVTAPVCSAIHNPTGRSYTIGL
Sequence of Full-length PRMT5 enzyme (NCBI Reference sequence NP_006100.2) co-expressed with His6-MEP50 (Q9BQA1 whole entry partner): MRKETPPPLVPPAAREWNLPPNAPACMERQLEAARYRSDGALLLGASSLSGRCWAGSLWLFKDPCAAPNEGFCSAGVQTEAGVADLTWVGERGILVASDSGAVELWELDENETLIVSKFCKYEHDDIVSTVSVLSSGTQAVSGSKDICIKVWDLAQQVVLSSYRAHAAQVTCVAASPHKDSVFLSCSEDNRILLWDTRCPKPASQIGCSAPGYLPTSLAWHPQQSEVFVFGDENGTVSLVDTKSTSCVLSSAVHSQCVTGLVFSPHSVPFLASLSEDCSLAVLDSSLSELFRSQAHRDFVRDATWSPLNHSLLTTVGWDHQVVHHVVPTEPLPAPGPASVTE

Row | Compound | pIC50
1 | c1ccc(OCc2ccc(-c3nc4cc(C5CCCNC5)cnc4[nH]3)cc2)cc1 (centres unmarked) [Example 16, 2-(4-(phenoxymethyl)phenyl)-6-(piperidin-3-yl)-3H-imidazo[4,5-b]pyridine] | 6.97
2 | c1ccc(COc2ccc(-c3nc4ccc(C5CCNCC5)nc4[nH]3)cc2)cc1 [Example 40, 2-(4-(benzyloxy)phenyl)-5-(piperidin-4-yl)-3H-imidazo[4,5-b]pyridine] | 6.65
3 | O=S(=O)(C1CC1)N1CCN(c2ccc3nc(-c4ccc(OCc5ccccc5)cc4)[nH]c3n2)CC1 [Example 92, 2-(4-(benzyloxy)phenyl)-5-(4-(cyclopropylsulfonyl)piperazin-1-yl)-3H-imidazo[4,5-b]pyridine] | 6.55
4 | CNC(=O)Cc1ccnc2[nH]c(-c3ccc(OCc4ccccc4)cc3)nc12 [Example 93, 2-(2-(4-(benzyloxy)phenyl)-3H-imidazo[4,5-b]pyridin-7-yl)-N-methylacetamide] | 5.67
5 | CN(C)C(=O)Cc1ccnc2[nH]c(-c3ccc(OCc4ccccc4)cc3)nc12 [Example 94, 2-(2-(4-(benzyloxy)phenyl)-3H-imidazo[4,5-b]pyridin-7-yl)-N,N-dimethylacetamide] | 5.99
6 | c1ccc(CSc2ccc(-c3nc4ccc(N5CCNCC5)nc4[nH]3)cc2)cc1 [Example 96, 2-(4-(benzylthio)phenyl)-5-(piperazin-1-yl)-3H-imidazo[4,5-b]pyridine] | 6.23
7 | CCS(=O)(=O)N1CC=C(c2ccc3nc(-c4ccc(OCc5ccccc5)cc4)[nH]c3n2)CC1 [Example 97, 2-(4-(benzyloxy)phenyl)-5-(1-(ethylsulfonyl)-1,2,3,6-tetrahydropyridin-4-yl)-3H-imidazo[4,5-b]pyridine] | 6.66
8 | CC(=O)N1CC=C(c2ccc3nc(-c4ccc(OCc5ccccc5)cc4)[nH]c3n2)CC1 [Example 98, 1-(4-(2-(4-(benzyloxy)phenyl)-3H-imidazo[4,5-b]pyridin-5-yl)-3,6-dihydropyridin-1 (2H)-yl)ethan-1-one] | 6.78
9 | CN1CCCC(c2ccc3nc(-c4ccc(COc5ccccc5)cc4)[nH]c3n2)C1 (centres unmarked) [Example 99, 5-(1-methylpiperidin-3-yl)-2-(4-(phenoxymethyl)phenyl)-3H-imidazo[4,5-b]pyridine] | 6.83
10 | c1ccc(COc2ccc(-c3nc4ccc(C5CC5)nc4[nH]3)cc2)cc1 [Example 105] | 5.82
11 | c1ccc(COc2ccc(-c3nc4ccc(-c5cncnc5)nc4[nH]3)cc2)cc1 [Example 106] | 5.05
12 | Cn1cc(-c2ccc3nc(-c4ccc(OCc5ccccc5)cc4)[nH]c3n2)cn1 [Example 107] | 5.78

These compounds were tested on histone H4 Arginine 3 dimethylation mark in TE11 cells (assay: PRMT5 Biomarker Assay). Conditions: Homo sapiens, TE-11; TE11 cell line, 72 hours incubation, Di-Methyl Histone H4R3 ELISA corrected for total protein.
Type: cell-based
Procedure: Compounds of the invention may be tested for potency to inhibit the histone H4 Arginine 3 dimethylation mark in the following assay:
The cell line TE11 was seeded at a density of 12,000 cells per well in 96 well tissue culture plates in DME medium and 10% foetal bovine serum, and allowed to adhere overnight under standard culture conditions (37° C., 5% CO2). […] The methylation level was determined using the EpiQuik™ Global Di-Methyl Histone H4R3 Quantification ELISA Kit (Epigentek, Farmingdale, N.Y.) as per the manufacturer's recommendations; in parallel the total protein amount in the lysate was quantified using a Lowry protein assay.

Row | Compound | pIC50
13 | Clc1ccnc2[nH]c(-c3ccc(OCc4ccccc4)cc3)nc12 [Example 4, 2-(4-(benzyloxy)phenyl)-7-chloro-3H-imidazo[4,5-b]pyridine] | 6.90
14 | c1ccc(OCc2ccc(-c3nc4cc(C5CCNCC5)cnc4[nH]3)cc2)cc1 [Example 9, 2-(4-(phenoxymethyl)phenyl)-6-(piperidin-4-yl)-3H-imidazo[4,5-b]pyridine] | 6.19
15 | c1ccc(OCc2ccc(-c3nc4cc(C5CCCNC5)cnc4[nH]3)cc2)cc1 (centres unmarked) [Example 16, 2-(4-(phenoxymethyl)phenyl)-6-(piperidin-3-yl)-3H-imidazo[4,5-b]pyridine] | 5.74
16 | c1ccc(COc2ccc(-c3nc4ccc(C5CCNCC5)nc4[nH]3)cc2)cc1 [Example 40, 2-(4-(benzyloxy)phenyl)-5-(piperidin-4-yl)-3H-imidazo[4,5-b]pyridine] | 6.14
17 | C1=C(c2ccc3nc(-c4ccc(OCc5ccccc5)cc4)[nH]c3n2)CCNC1 [Example 45, 2-(4-(benzyloxy)phenyl)-5-(1,2,3,6-tetrahydropyridin-4-yl)-3H-imidazo[4,5-b]pyridine] | 5.92
